# Laboratory results: patent publication US20110195900A1, “PEPTIDIC PTH RECEPTOR AGONISTS” (FERRING B.V., priority 2008, published 2011)
# Non-standard residues stand in square brackets, D forms with d. Residues, ends and D or L forms follow the SMILES beside them. 1Nal = N[C@@H](Cc1cccc2ccccc12)C(=O)O; β3hI = CC[C@H](C)[C@H](N)CC(=O)O; hSer = N[C@@H](CCO)C(=O)O; Nle = CCCC[C@H](N)C(=O)O; Aib = CC(C)(N)C(=O)O; βAla = NCCC(=O)O
# Target: T1, human PTH-1 receptor (Homo sapiens, UniProt Q03431)
# T1 construct: expressed in transfected cells; host or cells: HEK-293
# T1 sequence (Q03431 27-593): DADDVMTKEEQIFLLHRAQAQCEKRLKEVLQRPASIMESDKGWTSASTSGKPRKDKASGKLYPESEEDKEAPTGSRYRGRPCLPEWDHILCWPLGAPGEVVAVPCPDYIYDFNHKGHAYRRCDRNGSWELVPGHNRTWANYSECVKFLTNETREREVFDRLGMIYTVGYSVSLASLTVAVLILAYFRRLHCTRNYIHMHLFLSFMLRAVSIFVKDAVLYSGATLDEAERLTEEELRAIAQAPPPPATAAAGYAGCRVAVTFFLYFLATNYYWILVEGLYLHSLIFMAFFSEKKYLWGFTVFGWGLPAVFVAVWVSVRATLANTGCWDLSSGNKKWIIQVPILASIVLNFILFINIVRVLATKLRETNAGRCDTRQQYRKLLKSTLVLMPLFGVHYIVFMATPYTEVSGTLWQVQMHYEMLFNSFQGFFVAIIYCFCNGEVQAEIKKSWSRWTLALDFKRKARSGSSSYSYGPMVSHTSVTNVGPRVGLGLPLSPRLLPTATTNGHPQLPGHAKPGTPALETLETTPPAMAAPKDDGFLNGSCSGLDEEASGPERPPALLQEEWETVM
# Assay: Reporter gene assay (CRE-luciferase) for agonist activity in transiently transfected HEK-293 cells
# Assay type: cell-based
# Settings: for hPTHR-2/hPTHR-1: ratio of EC50 values, selectivity for hPTH-1 receptor over hPTH-2 receptor
# Method: Agonist activity of compounds on the human PTH-1 receptor was determined in a reporter gene assay by transiently transfecting HEK-293 cells with plasmids encoding human PTH-1 receptor under control of the SV40 promoter and a luciferase reporter gene under control of cAMP responsive elements (CRE). See Himmler et al, J. Recept. Res. 13 (1993) 79-94, for further guidance on this assay. Transfected cells were exposed to serial dilutions of compounds for 4-5 hours followed by lysis of cells, determination of luciferase activity, and determination of compound efficacies and EC50 values through non-linear regression.
# PTH (1-34) was used as an internal control in each experiment and compounds were tested in at least three independent experiments. To determine selectivity, compounds were tested in luciferase-based transcriptional reporter gene assays expressing the human PTH-2 receptor.
SMILES,EC50 [nM],hPTHR-2/hPTHR-1 (Table 3),selectivity for the hPTH-1 receptor over the hPTH-2 receptor (Table 3) [fold]
"CCCC[C@H](NC(=O)[C@H](CC(C)C)NC(=O)[C@H](CCC(N)=O)NC(=O)[C@@H](NC(=O)[C@H](CCC(=O)O)NC(=O)[C@H](CO)NC(=O)[C@@H](NC(=O)[C@@H](N)CO)C(C)C)[C@@H](C)CC)C(=O)N[C@@H](Cc1c[nH]cn1)C(=O)N[C@@H](CC(N)=O)C(=O)N[C@@H](CC(C)C)C(=O)NCC(=O)N[C@@H](CCCCN)C(=O)N[C@@H](Cc1c[nH]cn1)C(=O)N[C@@H](CC(C)C)C(=O)N[C@@H](CCCCN)C(=O)N[C@@H](CO)C(=O)N[C@H](CC(=O)N[C@@H](CCC(=O)O)C(=O)N[C@@H](CCCNC(=N)N)C(=O)N[C@H](C(=O)N[C@@H](CCC(=O)O)C(=O)N[C@@H](Cc1cccc2ccccc12)C(=O)N[C@@H](CC(C)C)C(=O)N[C@@H](CCCNC(=N)N)C(=O)N[C@@H](CCCCN)C(=O)N[C@@H](CC(C)C)C(=O)N[C@@H](CC(C)C)C(=O)N[C@@H](CCC(N)=O)C(=O)N[C@@H](CC(=O)O)C(=O)N[C@H](C(=O)N[C@@H](Cc1c[nH]cn1)C(=O)N[C@@H](CC(N)=O)C(=O)N[C@@H](Cc1ccccc1)C(N)=O)C(C)C)C(C)C)[C@@H](C)CC [SEQ ID NO: 34, [Nle^8, Lys^16, β-hIle^18,1-Nal^23, Leu^27] hPTH (1-34)-NH2] (H-SVSEIQL[Nle]HNLGKHLKS[β3hI]ERVE[1Nal]LRKLLQDVHNF-NH2; N-terminus assumed)",0.08,373,
"CCCC[C@H](NC(=O)[C@H](CC(C)C)NC(=O)[C@H](CCC(N)=O)NC(=O)[C@@H](NC(=O)[C@H](CCC(=O)O)NC(=O)[C@H](CO)NC(=O)[C@@H](NC(=O)[C@@H](N)CO)C(C)C)[C@@H](C)CC)C(=O)N[C@@H](Cc1c[nH]cn1)C(=O)N[C@@H](CC(N)=O)C(=O)N[C@@H](CC(C)C)C(=O)NCC(=O)N[C@@H](CCCCN)C(=O)N[C@@H](Cc1c[nH]cn1)C(=O)N[C@@H](CC(C)C)C(=O)N[C@@H](CCC(=O)O)C(=O)N[C@@H](CO)C(=O)N[C@H](CC(=O)N[C@@H](CCC(=O)O)C(=O)N[C@@H](CCCNC(=N)N)C(=O)N[C@H](C(=O)N[C@@H](CCC(=O)O)C(=O)N[C@@H](Cc1cccc2ccccc12)C(=O)N[C@@H](CC(C)C)C(=O)N[C@@H](CCCNC(=N)N)C(=O)N[C@@H](CCCCN)C(=O)N[C@@H](CC(C)C)C(=O)N[C@@H](CC(C)C)C(=O)N[C@@H](CCC(N)=O)C(=O)N[C@@H](CC(=O)O)C(=O)N[C@H](C(=O)N[C@@H](Cc1c[nH]cn1)C(=O)N[C@@H](CC(N)=O)C(=O)N[C@@H](Cc1ccccc1)C(N)=O)C(C)C)C(C)C)[C@@H](C)CC [SEQ ID NO: 21, [Nle^8, Glu^16, β-hIle^18,1-Nal^23, Leu^27] hPTH (1-34)-NH2] (H-SVSEIQL[Nle]HNLGKHLES[β3hI]ERVE[1Nal]LRKLLQDVHNF-NH2)",,234,
"CCCC[C@H](NC(=O)[C@H](CC(C)C)NC(=O)[C@H](CCC(N)=O)NC(=O)[C@@H](NC(=O)[C@H](CCC(=O)O)NC(=O)[C@H](CO)NC(=O)[C@@H](NC(=O)C(C)(C)N)C(C)C)[C@@H](C)CC)C(=O)N[C@@H](Cc1c[nH]cn1)C(=O)N[C@@H](CC(N)=O)C(=O)N[C@@H](CC(C)C)C(=O)NCC(=O)N[C@@H](CCCCN)C(=O)N[C@@H](Cc1c[nH]cn1)C(=O)N[C@@H](CC(C)C)C(=O)N[C@@H](CC(N)=O)C(=O)NCCC(=O)N[C@@H](CCOC)C(=O)N[C@@H](CCC(=O)O)C(=O)N[C@@H](CCCNC(=N)N)C(=O)N[C@H](C(=O)N[C@@H](CCC(=O)O)C(=O)N[C@@H](Cc1cccc2ccccc12)C(=O)N[C@@H](CC(C)C)C(=O)N[C@@H](CCCNC(=N)N)C(=O)N[C@@H](CCCCN)C(=O)N[C@@H](CC(C)C)C(=O)N[C@@H](CC(C)C)C(=O)N[C@@H](CCC(N)=O)C(=O)N[C@@H](CC(=O)O)C(=O)N[C@H](C(=O)N[C@@H](Cc1c[nH]cn1)C(=O)N[C@@H](CC(N)=O)C(=O)N[C@@H](Cc1ccccc1)C(N)=O)C(C)C)C(C)C [SEQ ID NO: 3, [Aib^1, Nle^8, β-Ala^17, hSer(OMe)^18,1-Nal^23, Leu^27] hPTH (1-34)-NH2] (H-[Aib]VSEIQL[Nle]HNLGKHLN[βAla][hSer](Me)ERVE[1Nal]LRKLLQDVHNF-NH2; N-terminus assumed)",0.06,766,766
